Source: PubChem BioAssay (NCI)
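Assay format: 96-well plates, 48-hour exposure. GI50 marks 50% less growth. Definition used: TGI = concentration required for complete inhibition of growth.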

Assays:
Test in all cases: NCI-60 cell line screen, 48 h
A549 NSCLC = system: A549 NSCLC
BT-549 breast = system: BT-549 breast
DU-145 prostate = system: DU-145 prostate
HCT-15 colon = system: HCT-15 colon
HT29 colon = system: HT29 colon
K-562 leukemia = system: K-562 leukemia
OVCAR-8 ovarian = system: OVCAR-8 ovarian
SF-539 CNS = system: SF-539 CNS
SK-MEL-5 melanoma = system: SK-MEL-5 melanoma
SW-620 colon = system: SW-620 colon

SMILES	TGI (A549 NSCLC) [µM]	TGI (BT-549 breast) [µM]	TGI (DU-145 prostate) [µM]	TGI (HCT-15 colon) [µM]	TGI (HT29 colon) [µM]	TGI (K-562 leukemia) [µM]	TGI (OVCAR-8 ovarian) [µM]	TGI (SF-539 CNS) [µM]	TGI (SK-MEL-5 melanoma) [µM]	TGI (SW-620 colon) [µM]	GI50 (A549 NSCLC) [µM]	GI50 (BT-549 breast) [µM]	GI50 (DU-145 prostate) [µM]	GI50 (HCT-15 colon) [µM]	GI50 (HT29 colon) [µM]	GI50 (K-562 leukemia) [µM]	GI50 (OVCAR-8 ovarian) [µM]	GI50 (SF-539 CNS) [µM]	GI50 (SK-MEL-5 melanoma) [µM]	GI50 (SW-620 colon) [µM]
O=c1[nH]c2ccc(C(F)(F)F)cc2nc1-c1ccccc1	> 100	> 100	> 100	> 100	> 100	> 100	> 100	> 100	> 100	> 100										
CCOc1c2ccsc2c(OCC)c2ccsc12	> 100	> 100	> 100	> 30.7	> 36	> 100	> 100	9.79	> 29.5	> 100										
CN(C)c1nc(N(C)C)nc(N(C)C)n1	> 150	> 150	> 150	> 150	> 150	> 150	> 150	> 142	136	> 150										
CCCC1NC(=O)C(CC(C)C)NC(=O)c2cccc(n2)C(=O)NC(CC(C)C)C(=O)NC(CCC)C(=O)NC(C(=O)OC)CCCCNC1=O (stereo unspecified)	> 100	76	> 100	> 100	94.5	53.7	> 100	45.1	> 100	> 100										
CCN(CC)C(=S)SS(=O)(=O)c1ccccc1C(=O)O	> 100	> 100	> 100	> 100	> 100	> 100	> 100	> 100	> 100	> 100										
CC(=O)OCC1OC(On2ccccc2=S)C(OC(C)=O)C(OC(C)=O)C1OC(C)=O (stereo unspecified)	> 100	> 100	> 100	> 100	> 100	> 100	> 100	> 100	> 100	> 100										
CCc1ccc(-c2nnc(COc3ccc(-c4nc5ccc(C)cc5[nH]4)cc3OC)o2)cc1	> 100	4.34	> 100	10.3	> 100	> 100	> 100	3.21	4.09	62.4	4.21	1.96	5.98	2.82	3.66	3.12	5.08	1.7	1.97	3.75
O=C(OCCN=C1c2ccccc2CCc2ccccc21)c1cc([N+](=O)[O-])cc([N+](=O)[O-])c1	> 31.6	> 100	> 31.6	> 31.6	> 31.6	> 100	> 31.6	> 31.6	> 31.6	> 31.6										
S=c1ssc2c3ssc(=S)c3n(Cc3ccccc3)c12	> 100	> 100	> 100	> 100	> 100	> 100	> 100	58.9	> 100	> 100										
CCOC(=O)c1nc2cc(N3CCOCC3)c(F)cc2[nH]c1=O	> 100	> 100	> 100	> 100	> 100	> 100	> 100	> 100	> 100	> 100										
CN1CCCN2CCN(C)CCN(CC1)CC2	> 100	> 100	> 100	> 100	> 100	> 100	> 100	> 100	> 100	> 100										
CCOC(=O)CC(=O)NC1CC2CCC1(C)C2(C)C (stereo unspecified)	> 100	> 100	> 100	> 100	> 100	> 100	> 100	> 100	> 100	> 100										
Clc1ccc(N=C/C=C/Nc2ccc(Cl)cn2)nc1	29.1	31	31.6	13	22.1	23.2	23.3	31.3	27.5	16.9										
CC1=C(/C=C/C(C)=C/C=C/C(C)=C/C(=O)OCC2OC(n3cc(F)c(=O)[nH]c3=O)CC2OC(=O)/C=C(C)/C=C/C=C(C)/C=C/C2=C(C)CCCC2(C)C)C(C)(C)CCC1 (stereo unspecified)	> 48.5	> 76.3	> 46.3	> 57.1	> 100	> 72.5	> 66.7	> 100	19.8	> 52.5										
Cc1ccc(/C=C2\CN(C)CC3=C2OC(N)=C(C#N)C3c2ccc(C)cc2)cc1 (stereo unspecified)	49.4	40.1	44.7	42.9	34.2	> 100	> 92	> 100	> 100	> 100										
Clc1ccc(-c2nn3c(CCCCCCCCc4nnc5sc(-c6ccc(Cl)cc6)nn45)nnc3s2)cc1	> 64.5	> 79.5	> 61.4	> 100	30.6	> 100	> 94.8	52.6	60.3	> 100										

SMILES	TGI (A549 NSCLC) [µM]	TGI (BT-549 breast) [µM]	TGI (DU-145 prostate) [µM]	TGI (HCT-15 colon) [µM]	TGI (HT29 colon) [µM]	TGI (K-562 leukemia) [µM]	TGI (OVCAR-8 ovarian) [µM]	TGI (SF-539 CNS) [µM]	TGI (SK-MEL-5 melanoma) [µM]	TGI (SW-620 colon) [µM]	GI50 (A549 NSCLC) [µM]	GI50 (BT-549 breast) [µM]	GI50 (DU-145 prostate) [µM]	GI50 (HCT-15 colon) [µM]	GI50 (HT29 colon) [µM]	GI50 (K-562 leukemia) [µM]	GI50 (OVCAR-8 ovarian) [µM]	GI50 (SF-539 CNS) [µM]	GI50 (SK-MEL-5 melanoma) [µM]	GI50 (SW-620 colon) [µM]
COc1cc(NS(C)(=O)=O)ccc1NCc1cnc2ccc3[nH]c(C)ccc3c12	> 100	> 100	89.1	> 100	> 100	62.2	> 100	> 100	> 100	> 100										
CC/C(=N\NC(=O)c1cccnc1)c1ccc2c(c1)OCCO2	> 100	> 100	> 100	> 100	> 100	> 100	> 100	> 100	> 100	> 100										
Cc1ccc(Nc2nc(=S)[nH]c3[nH]ncc23)cc1	> 100	> 100	> 100	> 100	> 100	> 100	> 100	> 100	> 100	> 100										
COc1c2c(c(OC)c3c1c(=O)c1ccccc1n3C)OCO2	> 100	> 100	> 100	> 100	> 100	> 100	> 100	> 90.7	15.7	> 100										
O=C(c1ccccc1)c1ccc(C(c2c(O)c3ccccc3oc2=O)c2c(O)c3ccccc3oc2=O)cc1	> 82.5	48.9	> 85.7	> 95.3	> 63.5	> 72.1	> 75.1	> 100	> 68.5	> 100										
CCCCCCCCCOC(=O)c1cnc(Cl)cn1	64.8	63.3	33.8	32	86.1	> 100	69.6	58.1	32.9	32.5										
CCN(CC)c1ccc(/C=C(\C#N)c2nc(N)nc(N3N=C(C)CC3(C)C)n2)cc1	32.3	> 100	29.3	> 100	> 49.2	> 68.7	24.4	19.9	> 61	> 100										
C=C(O)c1ccccc1C#Cc1ccccc1C(=O)OC	> 10	> 10	> 10	> 10	> 10	> 10	> 10	> 10	> 10	> 10										
COc1ccc2c(c1)C(N)CC2=O (stereo unspecified)	38.2	> 100	> 100	> 100	> 100	> 100	> 100	> 100	> 100	> 100										
COc1ccc(OC)c(C2CCc3nc4nc(N)nc(N)c4cc3C2)c1 (stereo unspecified)	31.4	16.6	17.8	47.5	10.8	6.35	6.93	17.8	18.6	9.12										
COC(CN(C)C(=O)C(C)NC(=O)c1ccccc1)OC (stereo unspecified)	> 100	> 100	> 100	> 100	> 100	> 100	> 100	> 100	> 100	> 100										
C/C(=N/NC(=S)Nc1ccccc1Cl)c1ccccn1	29.6	19.9	12.8	18	24.7	3.25	9.18	7.56	8.67	29.9										
Cc1c(N2C(=O)/C(=C/C=C/c3ccccc3)N=C2c2ccccc2)c(=O)n(-c2ccccc2)n1C	69.8	40.2	> 100	21	54	75	77.6	47.1	30.8	99.4										
Cc1ccc(S(=O)ON2CCC(C(=O)O)(c3ccccc3)CC2)cc1 (stereo unspecified)	> 100	> 100	> 100	> 100	> 100	> 100	> 100	> 100	> 100	> 100								> 100		
Brc1cccc(/C=C/CN2CCN(CCOC(c3ccccc3)c3ccccc3)CC2)c1	31.6	31.1	27.4	40.1	24.2	28.6	29.7	32.4	33.6	45.4										
